One test concerns the target BsuCA1 (BsCA1). It counts as biochemical, Brucella suis. The following applies: read-out: KI (nM) ^* / BsuCA1^b.
For the next test, the target named is BsuCA2 (BsCA2). It counts as biochemical, Brucella suis. As to conditions: read-out: KI (nM) ^* / BsuCA2^b.

Each structure is given as a SMILES string.

For `NS(=O)(=O)c1cnccc1N1CCC(Cc2ccccc2)CC1` [compound 12, 12], on BsuCA1 (BsCA1), the Ki was 40 nM.
Still for that read-out and setting: next, `Cc1nn(-c2ccncc2S(N)(=O)=O)c(C)c1C` [compound 14, 14]: 45 nM.
In the case of `CCc1cc(CC)n(-c2ccncc2S(N)(=O)=O)n1` [compound 17, 17], on BsuCA2 (BsCA2), the Ki came to 420 nM.
For the molecule `NS(=O)(=O)c1cnccc1N1CCN(Cc2ccccc2)CC1` [compound 10, 10], the Ki at BsuCA2 (BsCA2) is 97 nM; on BsuCA1 (BsCA1), 34 nM.
The corresponding values for `CCOC(=O)CCc1c(C)nn(-c2ccncc2S(N)(=O)=O)c1C` [compound 16, 16] are 706 nM and 41 nM.
Regarding `CCCCc1c(C)nn(-c2ccncc2S(N)(=O)=O)c1C` [compound 15, 15], on BsuCA1 (BsCA1), the Ki came to 47 nM.
As for `NS(=O)(=O)c1cnccc1N1CCN(Cc2ccc3c(c2)OCO3)CC1` [compound 11, 11], the figures for the Ki at BsuCA2 (BsCA2) and on BsuCA1 (BsCA1) were 336 nM and 36 nM, respectively.
Take `Cc1cc(C)n(-c2ccncc2S(N)(=O)=O)n1` [compound 13, 13]: the Ki is 780 nM at BsuCA2 (BsCA2) and 38 nM on BsuCA1 (BsCA1).

The record behind these values is publication PMC7011973 (Journal of Enzyme Inhibition and Medicinal Chemistry, 2017).
